In patent publication US20240299385A1 (ReWind Therapeutics NV, priority 2021, published 2024) one finds IC50 data, which are given here for 28 molecules.

Usually IC50 stands for the midpoint of a concentration-inhibition curve.

For the assay, the target named is T1, human GPR17 receptor (Homo sapiens, UniProt Q13304).
T1 construct: host or cells: HEK-293
T1 sequence (Q13304 whole entry): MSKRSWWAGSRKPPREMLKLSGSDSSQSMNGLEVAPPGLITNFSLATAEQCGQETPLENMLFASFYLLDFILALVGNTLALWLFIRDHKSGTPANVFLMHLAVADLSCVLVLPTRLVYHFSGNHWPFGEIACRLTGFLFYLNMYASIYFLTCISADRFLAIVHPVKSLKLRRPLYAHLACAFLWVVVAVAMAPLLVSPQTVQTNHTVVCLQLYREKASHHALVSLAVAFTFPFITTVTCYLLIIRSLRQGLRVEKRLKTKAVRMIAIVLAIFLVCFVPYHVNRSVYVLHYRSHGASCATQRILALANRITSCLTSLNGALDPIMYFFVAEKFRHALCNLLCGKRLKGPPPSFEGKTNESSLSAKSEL
Description: Calcium mobilization functional assay (Fluo-8, FLIPR TETRA) in HEK-293 hGPR17 (Gα-q assay). The note with it: antagonism of MDL29,951 (~EC80) induced Ca2+ signal; cell line (HEK-293 hGPR17 or HEK-293 Suchi5 hGPR17) not given. It counts as cell-based. Put shortly: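 Fluo-8-loaded HEK-293 hGPR17 cells (60 min dye loading, room temperature) were preincubated with compound for twenty minutes, then challenged with agonist MDL29,951 at ~EC80, 500 nM. Intracellular calcium release via Gα-q was recorded as FLIPR fluorescence for a further 2 minutes; compounds tested in duplicate.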
Background: A change in cytosolic calcium serves as a functional read-out for many receptors and channels.
On to `N#Cc1ccc(NS(=O)(=O)c2c[nH]cc2Cc2cccc(OC(F)(F)F)c2)c(F)c1` [Cpd 308, N-(4-cyano-2-fluoro-phenyl)-4-[[3-(trifluoromethoxy)phenyl]methyl]-1H-pyrrole-3-sulfonamide], for which the IC50 is 0.5 to 5 µM.

`N#Cc1ccc(NS(=O)(=O)c2c[nH]cc2Cc2cccc(OC(F)F)c2)c(F)c1` [Cpd 309, N-(4-cyano-2-fluoro-phenyl)-4-[[3-(difluoromethoxy)phenyl]methyl]-1H-pyrrole-3-sulfonamide]: the IC50 was under 0.5 µM.

As for `N#Cc1ccc(NS(=O)(=O)c2c[nH]c(-c3ncccc3C(F)(F)F)c2)c(F)c1` [Cpd 310, N-(4-cyano-2-fluoro-phenyl)-5-[3-(trifluoromethyl)-2-pyridyl]-1H-pyrrole-3-sulfonamide], the IC50 fell in the range of 0.5 to 5 µM.

With `O=S(=O)(Nc1cc(F)c(OC2CC2)cc1F)c1c[nH]c(-c2ccccn2)c1` [Cpd 311, N-[4-(cyclopropoxy)-2,5-difluoro-phenyl]-5-(2-pyridyl)-1H-pyrrole-3-sulfonamide], the IC50 fell in the range of 0.5 to 5 µM.

Regarding `N#Cc1ccc(NS(=O)(=O)c2c[nH]c(-c3ccccc3)c2)c(F)c1Cl` [Cpd 312, N-(3-chloro-4-cyano-2-fluoro-phenyl)-5-phenyl-1H-pyrrole-3-sulfonamide], the IC50 lay in the range of 0.5 to 5 µM.

As for `O=S(=O)(Nc1ccc(C(F)(F)F)cc1F)c1c[nH]c(-c2ccccc2)c1` [Cpd 313, N-[2-fluoro-4-(trifluoromethyl)phenyl]-5-phenyl-1H-pyrrole-3-sulfonamide], the IC50 was 0.5 to 5 µM.

Turning to `COc1ccc(F)cc1-c1cc(S(=O)(=O)Nc2ccc(C#N)cc2F)c[nH]1` [Cpd 314, N-(4-cyano-2-fluoro-phenyl)-5-(5-fluoro-2-methoxy-phenyl)-1H-pyrrole-3-sulfonamide], the IC50 was in the range of 0.5 to 5 µM.

Consider `Cc1ccc(F)c(-c2cc(S(=O)(=O)Nc3cc(F)c(C(F)(F)F)cc3F)c[nH]2)c1` [Cpd 315, N-[2,5-difluoro-4-(trifluoromethyl)phenyl]-5-(2-fluoro-5-methyl-phenyl)-1H-pyrrole-3-sulfonamide], for which the IC50 is 0.5 to 5 µM.

As for `N#Cc1ccc(NS(=O)(=O)c2c[nH]c(-c3cc(F)cc(Cl)c3)c2)c(F)c1` [Cpd 316, 5-(3-chloro-5-fluoro-phenyl)-N-(4-cyano-2-fluoro-phenyl)-1H-pyrrole-3-sulfonamide], the IC50 is 0.5 to 5 µM.

In the case of `N#Cc1ccc(NS(=O)(=O)c2c[nH]c(-c3ccccc3)c2)c(F)c1F` [Cpd 317, N-(4-cyano-2,3-difluoro-phenyl)-5-phenyl-1H-pyrrole-3-sulfonamide], the IC50 fell in the range of 0.5 to 5 µM.

Turning to `N#Cc1cccc(-c2cc(S(=O)(=O)Nc3cc(F)c(C(F)(F)F)cc3F)c[nH]2)c1` [Cpd 318, 5-(3-cyanophenyl)-N-[2,5-difluoro-4-(trifluoromethyl)phenyl]-1H-pyrrole-3-sulfonamide], the IC50 is under 0.5 µM.

Turning to `Cc1cccc(-c2cc(S(=O)(=O)Nc3cc(F)c(C(F)(F)F)cc3F)c[nH]2)c1F` [Cpd 319, N-[2,5-difluoro-4-(trifluoromethyl)phenyl]-5-(2-fluoro-3-methyl-phenyl)-1H-pyrrole-3-sulfonamide], the IC50 fell in the range of 0.5 to 5 µM.

Consider `O=S(=O)(Nc1cc(F)c(C(F)(F)F)cc1F)c1c[nH]c(-c2cc(Cl)ccc2F)c1` [Cpd 320, 5-(5-chloro-2-fluoro-phenyl)-N-[2,5-difluoro-4-(trifluoromethyl)phenyl]-1H-pyrrole-3-sulfonamide], for which the IC50 was in the range of 0.5 to 5 µM.

For the molecule `Cc1cccc(F)c1-c1cc(S(=O)(=O)Nc2cc(F)c(C(F)(F)F)cc2F)c[nH]1` [Cpd 321, N-[2,5-difluoro-4-(trifluoromethyl)phenyl]-5-(2-fluoro-6-methyl-phenyl)-1H-pyrrole-3-sulfonamide], the IC50 was in the range of 0.5 to 5 µM.

For the molecule `N#Cc1ccc(NS(=O)(=O)c2c[nH]c(-c3ccccn3)c2)c(F)c1F` [Cpd 322, N-(4-cyano-2,3-difluoro-phenyl)-5-(2-pyridyl)-1H-pyrrole-3-sulfonamide], the IC50 lay within 0.5 to 5 µM.

On to `COc1cccc(-c2cc(S(=O)(=O)Nc3cc(F)c(C(F)(F)F)cc3F)c[nH]2)c1` [Cpd 323, N-[2,5-difluoro-4-(trifluoromethyl)phenyl]-5-(3-methoxyphenyl)-1H-pyrrole-3-sulfonamide], for which the IC50 is 0.5 to 5 µM.

As to `COc1ccc(-c2cc(S(=O)(=O)Nc3cc(F)c(C(F)(F)F)cc3F)c[nH]2)c(F)c1` [Cpd 324, N-[2,5-difluoro-4-(trifluoromethyl)phenyl]-5-(2-fluoro-4-methoxy-phenyl)-1H-pyrrole-3-sulfonamide], the concentration for half-maximal inhibition (IC50) lay within 5 to 50 µM.

On to `COc1cccc(-c2cc(S(=O)(=O)Nc3cc(F)c(C(F)(F)F)cc3F)c[nH]2)c1F` [Cpd 325, N-[2,5-difluoro-4-(trifluoromethyl)phenyl]-5-(2-fluoro-3-methoxy-phenyl)-1H-pyrrole-3-sulfonamide], for which the half-maximal inhibitory concentration (IC50) was in the range of 0.5 to 5 µM.

Turning to `Cc1cc(NS(=O)(=O)c2c[nH]c(-c3ccccc3)c2)c(F)cc1C#N` [Cpd 326, N-(4-cyano-2-fluoro-5-methyl-phenyl)-5-phenyl-1H-pyrrole-3-sulfonamide], the IC50 is under 0.5 µM.

On to `O=S(=O)(Nc1cc(F)c(C(F)(F)F)cc1F)c1c[nH]c(-c2cccc(Cl)c2F)c1` [Cpd 327, 5-(3-chloro-2-fluoro-phenyl)-N-[2,5-difluoro-4-(trifluoromethyl)phenyl]-1H-pyrrole-3-sulfonamide], for which the IC50 was in the range of 0.5 to 5 µM.

For the molecule `O=S(=O)(Nc1c(F)cc(C(F)(F)F)cc1F)c1c[nH]c(-c2ccccc2)c1` [Cpd 328, N-[2,6-difluoro-4-(trifluoromethyl)phenyl]-5-phenyl-1H-pyrrole-3-sulfonamide], the IC50 was in the range of 0.5 to 5 µM.

For `Cc1ccc(-c2cc(S(=O)(=O)Nc3ccc(C#N)cc3F)c[nH]2)c(C)c1` [Cpd 329, N-(4-cyano-2-fluoro-phenyl)-5-(2,4-dimethylphenyl)-1H-pyrrole-3-sulfonamide], the 50% inhibitory concentration (IC50) fell in the range of 0.5 to 5 µM.

As for `N#Cc1ccc(-c2cc(S(=O)(=O)Nc3cc(F)c(C(F)(F)F)cc3F)c[nH]2)cc1` [Cpd 330, 5-(4-cyanophenyl)-N-[2,5-difluoro-4-(trifluoromethyl)phenyl]-1H-pyrrole-3-sulfonamide], the IC50 is 5 to 50 µM.

In the case of `Cc1ccc(C)c(-c2cc(S(=O)(=O)Nc3ccc(C#N)cc3F)c[nH]2)c1` [Cpd 331, N-(4-cyano-2-fluoro-phenyl)-5-(2,5-dimethylphenyl)-1H-pyrrole-3-sulfonamide], the IC50 was under 0.5 µM.

Regarding `O=S(=O)(Nc1ccc(C(F)(F)F)c(F)c1F)c1c[nH]c(-c2ccccn2)c1` [Cpd 332, N-[2,3-difluoro-4-(trifluoromethyl)phenyl]-5-(2-pyridyl)-1H-pyrrole-3-sulfonamide], the IC50 was in the range of 0.5 to 5 µM.

Turning to `N#Cc1cc(F)c(NS(=O)(=O)c2c[nH]c(-c3ccccc3)c2)cc1Cl` [Cpd 333, N-(5-chloro-4-cyano-2-fluoro-phenyl)-5-phenyl-1H-pyrrole-3-sulfonamide], the IC50 was under 0.5 µM.

For the molecule `O=S(=O)(Nc1ccc(C(F)(F)F)c(F)c1F)c1c[nH]c(-c2ccccc2)c1` [Cpd 334, N-[2,3-difluoro-4-(trifluoromethyl)phenyl]-5-phenyl-1H-pyrrole-3-sulfonamide], the IC50 is 0.5 to 5 µM.

In the case of `O=S(=O)(Nc1ccc(C(F)(F)F)c(Cl)c1F)c1c[nH]c(-c2ccccn2)c1` [Cpd 335, N-[3-chloro-2-fluoro-4-(trifluoromethyl)phenyl]-5-(2-pyridyl)-1H-pyrrole-3-sulfonamide], the IC50 was 5 to 50 µM.
